From publication PMC12329412, “Study of the mass balance, biotransformation, and safety of [^14C]IBI351 in healthy Chinese subjects” (Journal of Biomedical Research, 2024)
Where “and” joins values, the source holds several entries; their conditions need not be identical. Equal values may be shown once. Marks after values point to notes of the source that are not given here.

Assays:
[1] = Plasma pharmacokinetics of IBI351 parent drug (HPLC-MS/MS) after a single oral dose of [14C]IBI351; assay type: in vivo, human
Description: (§1) This was a single-center, single-dose, open-trial study involving six healthy Chinese male subjects. They received a single dose of 600 mg/150 μCi [^14C]IBI351 on day 1 after fasting for at least 10 h. Blood, urine, and fecal samples were collected at specified time points or intervals within 15 days (0–336 h) following the administration of [^14C]IBI351.
(§2) The endpoint of blood analysis was a plasma radioactivity concentration less than 1/8 of the baseline plasma value. Venous blood samples were collected from the six subjects (01101–01106) at the following time points (in hours): −1 (pre-dosing), 0.5, 1, 2, 4, 8, 12, 24, and at 24-h intervals (post-dosing). Whole blood aliquots were collected for radioactivity measurement, and blood samples were centrifuged (1500 [± 10] g, 4 ℃, 10 min) for metabolite identification. All samples were stored at −10–−30 ℃ until analysis.
Plasma, urine, and fecal samples were analyzed using high-performance liquid chromatography-tandem mass spectrometry (HPLC-MS/MS; ABSciex, Carlsbad, CA, USA) to determine the concentrations of IBI351. Samples containing stable isotope-labeled GF1927 (C32H27D3ClFN6O4, with a molecular weight of 620.10) as an internal standard were subjected to protein precipitation with acetonitrile and separated on a Waters Xbridge C18 column (3.5 μm, 50 mm × 2.1 mm; Waters, Milford, MA, USA) at 40 ℃. The mobile phase consisted of deionized water (with 0.1% formic acid) and acetonitrile (with 0.1% formic acid), delivered by gradient elution at 0.6 mL/min, and the gradient elution program was 30% phase B in 0–0.29 min, 80% phase B in 0.30–1.80 min, 30% phase B in 1.81–3.00 min. The detection was performed on a Triple Quad 6500+ tandem mass spectrometer in the positive ion electrospray ionization mode. Quantification was conducted by multiple reaction monitoring of the transitions m/z 617.3→358.2 for IBI351 and m/z 622.2→363.1 for internal standard, respectively. The calibration range for IBI351 in human plasma was 5–5000 ng/mL.
(§3) Statistical analysis of TRA in the whole blood and plasma, concentrations of IBI351, corresponding pharmacokinetic parameters, and urine and fecal excretion data was performed using Microsoft Excel 2010. The pharmacokinetic parameters were calculated using Pkanalix 2021R1 (Lixoft, Antony, France). The drug-time curve was plotted using WinNonlin® (version 8.3, Certara). Data were analyzed using the SAS 9.4 software and presented as mean ± standard deviation.

[2] = Pharmacokinetics of total radioactivity (TRA) in plasma by liquid scintillation counting; assay type: in vivo, human; details: for Tmax: single oral 600 mg/150 μCi [14C]IBI351, fasted, median (min, max)
Description: as §1, §2
(§4) Blood, plasma, urine, and fecal samples were analyzed for TRA using the Tri-Carb model 3110 TR liquid scintillation counter (PerkinElmer, Waltham, MA, USA). Blood samples were divided into two parallel portions (0.5 g) and completely burned by OX-501 oxidizer (R.J. Harvey, Tappan, NY, USA). Finally, the samples were analyzed by liquid scintillation counting. Plasma (0.5 g) and urine (1 g) samples were directly analyzed by liquid scintillation counting. Fecal samples were first homogenized with isopropanol/water (50/50, v/v). The excretion of radioactivity in the urine and feces, referring to the cumulative recovery of total radioactive material in each time period, was defined as the sum of the percentage of TRA in the urine and feces relative to the administered dose. The TRA in each sample during a time period and the percentage of TRA related to the administered dose (% of dose) were calculated using the following formula: % of dosage = (TRA detected in the sample/radioactive dosage) × 100%.
as §3

[3] = Mass balance: recovery of total radioactivity in urine and feces; assay type: in vivo, human; details: for Radioactivity excreted in feces / Radioactivity excreted in urine / Total radioactive excretion in urine and feces: 0–312 h, mean±SD, n=6
Description: as §1
Urine and fecal samples were collected for mass balance analysis and metabolite profiling. Urine samples were collected in polyethylene containers during the following time periods (in hours): −24–0 (pre-dosing), 0–4, 4–8, 8–12, 12–24, and at 24-h intervals thereafter (post-dosing) and stored at 4 ℃ during the collection period. Fecal samples were collected during the following periods (in hours): −24–0 (pre-dosing), 0–24, and at 24-h intervals thereafter (post-dosing). The collection of urine and fecal samples was terminated when the TRA in the combined biological samples (urine + feces) from each subject exceeded 90% of the administered dose. Additionally, the radioactivity in samples collected over two consecutive days should be less than 1% of the administered dose. The samples were weighed in special containers and stored at −10 ℃ to −30 ℃ until analysis.
as §4

[4] = molecular target: T1, albumin (Homo sapiens, UniProt P02768); test: Covalent binding analysis of IBI351 in the plasma; assay type: in vitro ADME
T1 construct: from tissue; host or cells: plasma of healthy human male subjects

[5] = IBI351 parent drug in plasma, single oral 600 mg/150 μCi, n=6, mean±SD
[6] = total plasma radioactivity, single oral 600 mg/150 μCi, n=6, mean±SD
[7] = individual subjects, rows in order 01101–01106, listed as [14C]IBI351

T1 sequence (P02768 25-609): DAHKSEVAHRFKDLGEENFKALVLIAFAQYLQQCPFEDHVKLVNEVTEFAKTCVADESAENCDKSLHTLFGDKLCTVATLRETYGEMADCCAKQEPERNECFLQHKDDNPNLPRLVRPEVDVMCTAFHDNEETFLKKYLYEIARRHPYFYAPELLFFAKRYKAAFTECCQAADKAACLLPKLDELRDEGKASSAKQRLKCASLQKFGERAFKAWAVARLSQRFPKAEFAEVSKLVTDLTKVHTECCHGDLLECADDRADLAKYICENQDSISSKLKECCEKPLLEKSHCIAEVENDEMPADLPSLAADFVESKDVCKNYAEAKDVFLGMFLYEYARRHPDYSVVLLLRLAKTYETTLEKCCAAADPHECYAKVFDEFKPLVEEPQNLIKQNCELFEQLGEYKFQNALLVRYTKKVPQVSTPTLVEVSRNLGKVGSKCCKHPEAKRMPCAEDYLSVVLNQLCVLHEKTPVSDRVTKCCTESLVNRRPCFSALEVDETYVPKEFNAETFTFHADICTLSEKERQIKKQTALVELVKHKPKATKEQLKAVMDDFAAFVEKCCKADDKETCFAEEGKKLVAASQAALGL

In the case of `C=CC(=O)N1CCN2c3c(c(=O)n(-c4c(C)ccnc4C(C)C)c4nc(-c5c(O)cccc5F)c(Cl)cc34)N(C)C(=O)C2C1` (stereo not drawn) [IBI351], the quantifiable time point ([1]; IBI351 parent drug in plasma) is reported as 168 h, the “AUC0–last” value [1, 5] is reported as 2.65×10^4±5.90×10^3 h·ng Eq./mL and the CL/F [1, 5] is reported as 25.6 (± 5.56) L/h and 25.6±5.56 L/h. The Cmax [1, 5] was 3.90×10^3±8.02×10^2 ng Eq./mL, the Cmax ([1]; IBI351 parent drug in plasma, single oral 600 mg/150 μCi, n=6, mean±SD, listed as IB1351) was 3.90 × 10^3 (± 8.02 × 10^2) ng Eq./mL and the Cmax ([1]; male, human, oral, 600 mg, IBI351 parent drug in plasma, read-out: mean Cmax) was 3.9 µg/mL. For the same molecule, the CL renal ([1]; male, human, plasma, single oral 600 mg/150 μCi, read-out: renal clearance (converted)) was 30.3 mL/min, the Tmax ([1]; male, human, IBI351 parent drug in plasma, single oral 600 mg/150 μCi, fasted, n=6, median (min, max)) was 1 h and the half-life ([1]; male, human, IBI351 parent drug in plasma, single oral 600 mg/150 μCi, n=6, mean±SD) was 17.4 ± 11.9 h. It also gave an MRT last ([1]; male, human, IBI351 parent drug in plasma, single oral 600 mg/150 μCi, n=6, mean±SD, read-out: MRT0–last) of 8.24 ± 1.1 h, a Vd/F ([1]; male, human, IBI351 parent drug in plasma, single oral 600 mg/150 μCi, n=6, mean±SD, read-out: Vz/F) of 581 ± 323 L and a quantifiable time point ([2]; TRA in plasma) of 456 h. For the same molecule, the Tmax ([2]; total plasma radioactivity, n=6) was 2.00 h and 2.00 (2.00, 4.00) h, the Tmax ([2]; total plasma radioactivity, n=6, listed as [^14C]IBI351) was 2 h and the “AUC0–inf” value [2, 6] was 4.69×10^5±1.10×10^5 h·ng Eq./mL. The “AUC0–last” value [2, 6] was 4.33×10^5±1.04×10^5 h·ng Eq./mL, the CL/F [2, 6] was 1.32 ± 0.319 L/h and the Cmax [2, 6] was 7.26 × 10^3 (± 1.68 × 10^3) ng Eq./mL and 7.26×10^3±1.68×10^3 ng Eq./mL. For the same molecule, the “MRT0–last” value [2, 6] was 108 ± 4.20 h, the T1/2 [2, 6] was 129 (± 21.7) h and 129±21.7 h and the Vz/F [2, 6] was 242 ± 50.7 L. For the same molecule, the T1/2 ([2]; total plasma radioactivity, single oral 600 mg/150 μCi, n=6, mean±SD, listed as [^14C]IBI351) was 129 h, the “Radioactivity excreted in feces” value [3] was “approximately 86.30 % of dose” and the “Radioactivity excreted in urine” value [3] was 9.27 % of dose. For the same molecule, the “Total radioactive excretion in urine and feces” value (from here on “Total radioactive excretion”) [3] was 95.56 % of dose, the “Radioactivity excreted in feces” value ([3]; listed as [14C]IBI351) was 86.30±4.90 % of dose and the “Radioactivity excreted in urine” value ([3]; listed as [14C]IBI351) was 9.27±1.83 % of dose. The “Total radioactive excretion” value ([3]; listed as [14C]IBI351) was 95.56±3.41 % of dose, the “Radioactivity excreted in feces” value ([3]; listed as [^14C]IBI351) was 86.30 % of dose and the “Radioactivity excreted in urine” value ([3]; listed as [^14C]IBI351) was 9.27 % of dose. For the same molecule, the “Total radioactive excretion” value ([3]; listed as [^14C]IBI351) was 95.56 % of dose, the Excretion rate ([3]; at 144 h (six days) post-dose) was “less than 1.00%” and the “Urine and feces recovered radioactivity” value ([3]; individual subjects, rows in order 01101–01106, 01105 normalized to 100.00%, listed as [14C]IBI351) was 92.36 % of dose and 94.47 % of dose and 91.45 % of dose and 96.48 % of dose and 100.00 % of dose and 98.61 % of dose. For the same molecule, the Feces recovered radioactivity [3, 7] was 80.29 % of dose and 87.83 % of dose and 92.67 % of dose and 89.35 % of dose and 80.67 % of dose and 86.99 % of dose, the Urine recovered radioactivity [3, 7] was 11.69 % of dose and 7.48 % of dose and 11.16 % of dose and 8.65 % of dose and 7.33 % of dose and 9.26 % of dose and the “TRA excreted into the feces” value ([3]; of the administered dose, from 0 h to 192 h) was 86.30%. The “TRA excreted into the urine and feces” value ([3]; of the administered dose, period printed as 0–192 h) was 95.56%, the “Total radioactive content excreted in urine and feces within 120 h” value ([3]; within 120 h (five days) after administration, on average) was “more than 90.00%” and the “covalent binding in the plasma” value [4] was “presence of covalent binding between IBI351 and albumin”.
